Article PMC5547389, “Structure-activity relationships and molecular docking studies of chromene and chromene based azo chromophores: A novel series of potent antimicrobial and anticancer agents” (EXCLI Journal, 2017)
Converted amounts (≈) assume the structure as drawn.

Columns and labels:
HCT-116, MCF-7, HEPG-2 = test: Cytotoxic screening, statements over the three cell lines; format: cell-based; conditions: Homo sapiens; HCT-116, MCF-7, HEPG-2 together; read-out: IC50, range over the three cell lines
Method: Human colon carcinoma (HCT-116), human hepatocellular carcinoma (HEPG-2), adenocarcinomic human alveolar basal epithelial cell (A-549), and human breast adenocarcinoma (MCF-7) cell lines were obtained from the American Type Culture Collection (ATCC, Rockville, MD). The cells were grown on RPMI-1640 medium supplemented with 10 % inactivated fetal calf serum and 50 µg/ml gentamycin. The cells were maintained at 37 °C in a humidified atmosphere with 5 % CO2 and were subcultured two to three times a week. Potential cytotoxicity of the compounds was evaluated on tumor cells using the method of Gangadevi and Muthumary (2007[21]) (Klancnik et al., 2010[36]). The cells were grown as monolayers in growth RPMI-1640. The monolayers of 104 cells adhered at the bottom of the wells in a 96-well microtiter plate incubated for 24 h at 37 °C in a humidified incubator with 5 % CO2. The monolayers were then washed with sterile phosphate buffered saline (0.01 M pH 7.2) and simultaneously the cells were treated with 100 µL from different dilutions of tested sample in fresh maintenance medium and incubated at 37 °C. A control of untreated cells was made in the absence of tested sample. Positive controls containing doxorubicin were also tested as a reference drug for comparison. Six wells were used for each concentration of the test sample. Every 24 hours an observation under the inverted microscope was made. The number of the surviving cells was determined by staining the cells with crystal violet (Mosmann, 1983[42]; Gangadevi and Muthumary, 2007[21]) followed by cell lysing using 33 % glacial acetic acid and reading the absorbance at 590 nm using microplate reader (SunRise, TECAN, Inc, USA) after well mixing. The absorbance values from untreated cells were considered as 100 % proliferation. The number of viable cells was determined using microplate reader as previously mentioned before and the percentage of […] was calculated as [1-(ODt/ODc)] x 100 % where ODt is the mean optical density of wells treated with the tested sample and ODc is the mean optical density of untreated cells. The relation between surviving cells and drug concentration was plotted to get the survival curve of each tumor cell line after treatment with the specified compound. The 50 % inhibitory concentration (IC50), the concentration required to cause toxic effects in 50 % of intact cells, was estimated from graphic plots.
The in vitro cytotoxic activity was performed by MTT assay (Mosmann, 1983[42]; Alley et al., 1988[6]) against three human carcinoma cell lines: Human colon carcinoma (HCT-116), human breast adenocarcinoma (MCF-7), and human hepatocellular carcinoma (HEPG-2).

[1] = tested on: primary mixed neuronal in vitro culture; test: Acute toxicity, LDH release; format: cell-based, rat
Method: In vitro experiments were carried out at the University of Prince Edward Island and approved by the Animal Care and Biosafety Committees, which adheres to the guidelines of the Canadian Council on Animal Care (protocol #14-041 and 15-028). Mixed neocortical cultures, containing both neurons and glia, were prepared from fetal rats at 17-18 days gestation. Briefly, embryonic tissue was extracted from untimed pregnant Sprague-Dawley rats by caesarean section and transferred to ice-cold Hanks Balanced Salt Solution (Gibco). Cortical brain tissue was carefully isolated by fine dissection using aseptic techniques. Cortices were minced in cold HBSS using a sterile razor blade prior to digestion with 0.0125 % trypsin. Dissociated cells were plated in poly-L-lysine (1 mg/ml, Sigma Aldrich) coated 96 well plates at a seeding density of 50000 cells/well in warm (37 °C) Dulbecco's Modified Eagle Medium (Gibco) containing 10 % iron-supplemented bovine calf serum (Hyclone) and 1 % antibiotic/antimycotic (Gibco). Cultures were allowed to adhere overnight in a humidified 37 °C incubator having 5 % CO2 and atmospheric oxygen. The following day, the media was replaced with warmed Neurobasal A Medium (Gibco) containing 0.5 mM L-glutamine (Gibco) and supplemented with 1 % B27, N2 and antibiotic/antimycotic (Gibco). Half-volume media changes were made every 4 days thereafter with experiments being carried out on 14-16 day old cultures. After 14 days in culture, the medium was replaced with deoxygenated unsupplemented glucose-free Neurobasal A containing either 10 or 100 µM of the novel compounds T3, T4, T5, T8, T9, T11, or T12. Control wells contained glucose-free medium plus vehicle - either 0.1 % ethanol or 0.1 % DMSO. Cultures were transferred to a humidified 37 °C incubator having 5 % CO2, 1.1 % O2 and the balance N2 for a period of 24 hours. Following OGD, an equal volume of normal supplemented Neurobasal A containing identical drug concentrations was added and cultures were transferred to normoxic conditions (5 % CO2 and atmospheric oxygen) for an additional 24 h. Cell viability was assessed by measuring LDH release from damaged cells. Control cultures were prepared in separate plates having supplemented Neurobasal A and being maintained in 5 % CO2 and atmospheric oxygen for the duration of the experiment. Toxicity was assessed in wells treated with 10 µM of each of the test compounds listed above. After 24 h an equal volume of culture media as added to each well to account for handling effects on experimental outcomes. Toxicity was assessed after an additional 24 h in culture by measuring LDH release from treated cells. At the end of each experiment, cell injury was assessed by measuring lactate dehydrogenase (LDH) released from damaged cells into the culture medium (Cytoscan LDH Assay, G Biosciences). LDH measurements represent the average of 7 replicate treatments/dose. The effect of OGD and drug treatments on LDH was expressed as a percent of LDH release compared to OGD and vehicle groups. […]
Lactate dehydrogenase (LDH) release in the medium is an enzymatic indicator that illustrates the loss of membrane integrity, apoptosis, or necrosis of a cell. Using a primary mixed neuronal in vitro culture, the cytotoxic effect of the chromene-based compounds (4a, 4c, 7c, 12c, 12k, 13g, and 13h) was assessed by lactate dehydrogenase (LDH) release from cells pretreated with different concentrations after 24 and 48 h of incubation (Figure 9A-C(Fig. 9)). […]

SMILES	IC50 (HCT-116, MCF-7, HEPG-2) [µg/mL]	LDH release more than vehicle ([1]; 10 µM, 24 hrs of incubation)	LDH release ([1]; 100 µM, 24 hrs)	LDH release ([1]; 10 µM, 24 hrs of incubation)
N#CC1=C(N)Oc2c(N)cc3ccccc3c2C1c1ccc(Cl)cc1 (stereo not shown) [4b, 3,5-diamino-1-(4-chlorophenyl)-1H-benzo[f]chromene-2-carbonitrile]	0.3 to 2 (≈ 0.863 to 5.75 µM)	–	–	–
N#CC1=C(N)Oc2c(ccc3c(N)cccc23)C1c1ccc(F)cc1 (stereo not shown) [7c]	0.3 to 2 (≈ 0.905 to 6.04 µM)	2-3 folds	more LDH release compared to the vehicle	–
N#CC1=C(N)Oc2c(N)cc3ccccc3c2C1c1ccc(F)cc1 (stereo not shown) [4a, 3,5-diamino-1-(4-fluorophenyl)-1H-benzo[f]chromene-2-carbonitrile]	0.3 to 2 (≈ 0.905 to 6.04 µM)	2-3 folds	–	–
COc1ccc(N=Nc2cc3c(cc2O)OC(N)=C(C#N)C3c2ccc(F)cc2)cc1 (stereo not shown) [13b, 2-Amino-4-(4-fluoro-phenyl)-7-hydroxy-6-(4-methoxy-phenylazo)-4H-chromene-3-carbonitrile]	2.41 to 5.4 (≈ 5.79 to 13 µM)	–	–	–
Cc1ccc(C2C(C#N)=C(N)Oc3c(N)cc4ccccc4c32)cc1 (stereo not shown) [4c, 3,5-diamino-1-(p-tolyl)-1H-benzo[f]chromene-2-carbonitrile]	0.3 to 2 (≈ 0.916 to 6.11 µM)	–	ineffective	reduced the LDH release
